From BigSolDB 2.1

C[C@@H]1CC[C@@]2(OC1)O[C@H]1C[C@H]3[C@@H]4CC=C5C[C@@H](O)CC[C@]5(C)[C@H]4CC[C@]3(C)[C@H]1[C@@H]2C
in n-pentanol
Details	solubility (mole fraction)
293.2 K	0.00462
298.2 K	0.0051
303.2 K	0.00621
308.2 K	0.0075
313.2 K	0.00866
318.2 K	0.0102
323.2 K	0.0122
328.2 K	0.0148

C=C(C)[C@@H]1CC[C@]2(CO)CC[C@]3(C)[C@H](CC[C@@H]4[C@@]5(C)CC[C@H](O)C(C)(C)[C@@H]5CC[C@]43C)[C@@H]12
solubility (mole fraction)
Details	in DMF	in NMP	in acetonitrile	in n-dodecane	in n-hexadecane	in n-nonanol	in n-octanol	in n-pentanol	in sec-butanol	in water
293.2 K	0.00208	0.00549	0.000269	1.5e-05	4.6e-05	0.00217	0.0016	0.000894	0.000701	4e-06
298.2 K	0.00244	0.00569	0.000473	1.6e-05	5.3e-05	0.00234	0.00162	0.00096	0.000728	5e-06
303.2 K	0.00294	0.0059	0.000697	1.9e-05	5.7e-05	0.00254	0.00179	0.00108	0.000813	6e-06
308.2 K	0.00334	0.00615	0.00104	2.3e-05	6.5e-05	0.00292	0.00186	0.0012	0.000845	9e-06
313.2 K	0.00368	0.00635	0.00137	2.5e-05	7.6e-05	0.00324	0.00209	0.00132	0.000941	1.4e-05
318.2 K	0.00426	0.00653	0.00193	3e-05	8.3e-05	0.00371	0.00229	0.00149	0.00108	1.8e-05
323.2 K	0.00461	0.00676	0.00244	3.5e-05	9.8e-05	0.00431	0.00269	0.00175	0.0012	2.5e-05
328.2 K	0.00518	0.00697	0.00341	4.5e-05	0.000117	0.0051	0.00341	0.00198	0.00148	3.3e-05
